Test results from BindingDB's records for doi:10.7270/Q26T0K34 (The Scripps Research Institute Molecular Screening Center, 2010).

Biological target: Peroxisome proliferator-activated receptor gamma (Homo sapiens, UniProt P37231)
Experiment: PubChem AID 463257

Chain of Peroxisome proliferator-activated receptor gamma (P37231 whole entry, looked up): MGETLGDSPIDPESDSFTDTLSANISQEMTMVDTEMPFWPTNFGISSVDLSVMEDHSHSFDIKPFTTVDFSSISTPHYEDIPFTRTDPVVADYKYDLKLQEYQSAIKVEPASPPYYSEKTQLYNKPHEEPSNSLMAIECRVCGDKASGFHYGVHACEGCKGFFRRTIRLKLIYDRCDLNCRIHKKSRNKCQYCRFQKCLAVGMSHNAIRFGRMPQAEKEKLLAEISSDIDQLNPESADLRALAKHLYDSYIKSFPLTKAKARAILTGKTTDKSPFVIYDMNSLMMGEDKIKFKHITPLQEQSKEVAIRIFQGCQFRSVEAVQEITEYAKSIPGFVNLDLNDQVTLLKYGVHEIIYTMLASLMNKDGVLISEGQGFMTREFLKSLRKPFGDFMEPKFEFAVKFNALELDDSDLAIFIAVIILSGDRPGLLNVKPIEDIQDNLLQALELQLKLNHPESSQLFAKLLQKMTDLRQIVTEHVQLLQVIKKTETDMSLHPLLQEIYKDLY

IC50: 24.7 µM
SMILES: COc1ccc(-n2cc(O)c(-c3nc(-c4ccccc4)cs3)c2N)cc1 [5-amino-1-(4-methoxyphenyl)-4-(4-phenyl-1,3-thiazol-2-yl)-2H-pyrrol-3-one]
